Laboratory results reported in patent publication US20190315775A1, “MODIFIED […] AND PHARMACEUTICAL COMPOSITION HAVING SAME AS ACTIVE INGREDIENT” (KEIO UNIVERSITY, priority 2016, published 2019).
pIC50: −log10 of the molar value.

Columns and labels:
[1] = test system: KMS34 high-risk MM cell line; assay: MTT cell proliferation inhibition, KMS34; assay type: cell-based; conditions: Homo sapiens, KMS-34, KMS34, t(4;14), del17, 48 hours, read-out: IC50, cell proliferation inhibitory activity, KMS34
Description: (§1) For examination of cell proliferation inhibitory activity, high-risk MM cell lines (KMM1, KMS11, KMS21, KMS26, KMS28, KMS34) established by Takemi Otsuki et al., of Kawasaki Medical School were used (Otsuki, T. et al., Int. J. Oncol., 15: 1205-1212, 1999). […] The genetic abnormality of these cell types, and in particular deletion of p53 gene were examined by FISH method (Chang, H. Blood, 105: 358-360, 2005) (WO2010/061862A1). […] These high-risk MM cell lines were treated with drugs such as TC11, HOEtO-TC11, PEG11(E)-TC11, and PEG11(O)-TC11 at arbitrary concentrations. […] Specifically, each high-risk MM cell line was prepared at a concentration of 2×10^5 cells/ml, and then seeded in an amount of 50 μl (1×10^4 cells) per well. After 24 hours, drugs such as TC11, HOEtO-TC11, PEG11(E)-TC11, and PEG11(O)-TC11 having arbitrary concentrations were added. At 48 hours after addition of each drug, 10 μL each of an MTT labeling reagent in Cell Proliferation Kit I [MTT] (Roche Diagnostics, Basel, Switzerland) was added. After 4 hours of treatment at 37° C., 100 μL each of solution buffer was added and then left to stand overnight at 37° C. Absorbance was measured using a microplate reader Infinit™ M1000 (Tecan, Maennedorf, Switzerland) at a wavelength of 570 nm. Cell viability was found from an absorbance ratio using absorbance at 0 μM designated as 100%. IC50 was calculated from a semi-logarithmic chart using Microsoft (registered trademark) Excel.

[2] = test system: KMS21 high-risk MM cell line; assay: MTT cell proliferation inhibition, KMS21; assay type: cell-based; conditions: Homo sapiens, KMS21, t(11;14), 48 hours, read-out: IC50, cell proliferation inhibitory activity, KMS21
Description: as §1
Moreover, the concentration dependency of the in vitro cell proliferation inhibitory activity of TC11, and its derivatives, PEG11(E)-TC11 and HOEtO-TC11 against high-risk MM cell line (KMS21) was examined in detail (FIG. 4). […] Such a phenomenon was similarly observed for other high-risk MM cell lines, KMS11, KMS34, and MUM24.

[3] = test system: KMS11 high-risk MM cell line; assay: MTT cell proliferation inhibition, KMS11; assay type: cell-based; conditions: Homo sapiens, KMS-11, KMS11, t(4;14), del17, 48 hours, read-out: IC50, cell proliferation inhibitory activity, KMS11
Description: as §1

[4] = test system: KMS34 (human myeloma cells); assay: WST-1 proliferation assay (Example 10), KMS34; assay type: cell-based; conditions: KMS-34, WST-1, 48 hours
Description: Cancer cells used herein were KMS34 (human myeloma cells), HeLa (human cervical cancer cells), HCT116 (human colon cancer cells; p53+/+), KATOIII (human stomach cancer cells), MDA-MB-231 (human breast cancer cells), HT-29 (human colon adenocarcinoma cells), PANC-1 (human pancreatic cancer cells), and Li-7 (human liver cancer cells). Proliferation assay of various cancer cells was performed by the WST-1 method (Cook, J A. & Mitchell, J B., Anal. Biochem., 179, 1-7, 1984) as follows. One μ1 each of PEG11(E)-TC11 and PEG11(O)-TC11 prepared in advance at target concentrations was added into each well of a 96-well microplate. Medium was added to the wells at 50 μl per well, and then mixed by tapping lightly the plate. Subsequently, KMS34 was prepared at a concentration of 5×10^5 cells/ml, and cells other than KMS34 were prepared at a concentration of 2×10^5 cells/ml. Cells were seeded at 50 μl per well (2.5×10^4 cells, 1×10^4 cells), and then incubated in a CO2 incubator (37° C., 5% CO2) for 48 hours. Ten μ1 each of cell proliferation reagent WST-1 (Roche) was added to each well after incubation, and then the resultants were mixed by lightly tapping the plate, followed by 1 hour of reaction in the CO2 incubator. Subsequently, the plate was shaken with a plate reader for 1 minute, and then absorbance was measured at 450 nm. At this time, absorbance was also measured at 595 nm as a reference wavelength. The net absorbance was obtained by subtracting the absorbance at the reference wavelength from the absorbance at 450 nm.

[5] = test system: high-risk MM cell lines; assay: MTT cell proliferation inhibition, panel of high-risk MM cell lines; assay type: cell-based; conditions: Homo sapiens, range over the cell lines of Table 2, 48 hours
Description: as §1

[6] = test system: KMS11 xenograft; assay: Antitumor effect on KMS11-bearing mice (Example 16); assay type: in vivo, ICR/SCID mice; conditions: for Body weight compared to the control group: at the doses suppressing tumor growth; for Tumor volume compared to the control: i.p., equimolar to TC11 60 mg/kgBW
Description: TC11 and its derivatives were examined for in vivo antitumor effects using 6 KMS11 xenograft model mice. KMS11 was administered to 6-week-old ICR/SCID mice at 3×10^7 cells/mouse via hypodermic injection. Tumor volume was measured over time. The day on which each tumor volume exceeded 50 mm^3 was designated as Day 1 and observation was performed for 14 days. The single dosage of TC11 was 60 mg/kgBW, the intraperitoneal dosages of PEG11(E)-TC11 and PEG11(O)-TC11 were 177.3 mg/kgBW and 163.8 mg/kgBW, respectively, which were equimolar amounts of that of TC11. […] The final composition of the solvent was 10% DMSO+1% Tween 80/physiological saline. […] Drug administration was performed for two out of every 3 days (Day 1, 2, 4, 5, 7, 8, 10, 11, […], 13). Mice were sacrificed on Day 14, and then tumor weights were measured and in vivo findings were confirmed.

[7] = Water solubility of drugs (saturation concentration by HPLC); assay type: physicochemical; conditions: 100 mM Tris-HCl (pH 7.5); for Water solubility: 25° C., saturation concentration; for Water solubility, relative ratio (numerals in parentheses): relative to TC11
[8] = molecular target: T1, cereblon (CRBN) (Homo sapiens, UniProt Q96SW2); assay: Surface plasmon resonance biosensor (BIACORE 3000) interaction with cereblon; assay type: binding; conditions: measured at 1 μM, 2 μM and 10 μM, FIG. 9C
T1 construct: recombinant full-length CRBN prepared by the above method was reacted with the beads; T7 tag (N); FLAG tag (C); made in house; host or cells: 293T cells (pcDNA3.3 vector), RIPA extract purified on Ni Sepharose excel

[9] = test system: KMS28 high-risk MM cell line; assay: MTT cell proliferation inhibition, KMS28; assay type: cell-based; conditions: Homo sapiens, KMS28, t(4;14), del17, 48 hours, read-out: IC50, cell proliferation inhibitory activity, KMS28
Description: as §1

[10] = test system: MUM24 MM cell line; assay: MTT cell proliferation inhibition, MUM24; assay type: cell-based; conditions: Homo sapiens, MUM24, t(4;14), del13, del17, 48 hours, read-out: IC50, cell proliferation inhibitory activity, MUM24
[11] = 6 KMS11 xenograft model mice, i.p. 177.3 mg/kgBW

T1 sequence (Q96SW2 whole entry): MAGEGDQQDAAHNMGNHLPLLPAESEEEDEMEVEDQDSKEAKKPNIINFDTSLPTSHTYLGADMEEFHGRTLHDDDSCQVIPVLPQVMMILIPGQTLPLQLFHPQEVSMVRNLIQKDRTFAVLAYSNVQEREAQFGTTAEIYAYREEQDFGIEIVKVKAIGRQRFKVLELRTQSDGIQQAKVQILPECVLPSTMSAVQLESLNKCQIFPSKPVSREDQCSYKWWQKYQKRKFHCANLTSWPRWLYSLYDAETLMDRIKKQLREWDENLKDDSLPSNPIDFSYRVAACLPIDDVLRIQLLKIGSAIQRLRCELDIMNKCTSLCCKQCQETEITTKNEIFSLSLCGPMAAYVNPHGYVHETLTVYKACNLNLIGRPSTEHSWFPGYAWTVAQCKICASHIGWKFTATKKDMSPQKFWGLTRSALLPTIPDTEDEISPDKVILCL

| Compound | pIC50 [1] | pIC50 [2] | pIC50 [3] | pIC50 [4] | pIC50 [5] | Body weight compared to the control group ([6]; KMS11 xenograft mice) | Tumor volume compared to the control ([6]; KMS11 xenograft mice, 14 days) | Water solubility [7] [g/100 ml] | Water solubility, relative ratio (numerals in parentheses) [7] | Binding to CRBN (SPR sensorgram) [8] | pIC50 [9] | pIC50 [10] | Mice from which the primary lesion had completely disappeared [6, 11] [mouse] | Mice having tumor sizes almost the same as at initiation of administration [6, 11] [mice] | Tumor volume compared to TC11 ([6]; KMS11 xenograft mice, i.p. 177.3 mg/kgBW, 14 days) |
| --- | --- | --- | --- | --- | --- | --- | --- | --- | --- | --- | --- | --- | --- | --- | --- |
| COCCOCCOCCOCCOCCOCCOCCOCCOCCOCCOCCOCCOc1cc2c(cc1N)C(=O)N(c1c(C(C)C)cccc1C(C)C)C2=O [PEG11(O)-TC11] | 4.98 | 4.64 | 5.32 | 4.80 | 4.22 to 5.30 | no decrease in body weight | significant decreases in tumor volume | 1.47 | 735 × | never bind to CRBN | 4.59 | 5.04 | – | – | – |
| COCCOCCOCCOCCOCCOCCOCCOCCOCCOCCOCCOCCC(=O)OCCOc1cc2c(cc1N)C(=O)N(c1c(C(C)C)cccc1C(C)C)C2=O [PEG11(E)-TC11] | 5.59 | 5.80 | 5.85 | 6.17 | 5.15 to 6.00 | no decrease in body weight | significant decreases in tumor volume | 8.89 | 4,447 × | never bind to CRBN | 5.17 | 5.74 | 1 | 3 | significant decrease in tumor volume compared to TC11 |
| CC(C)c1cccc(C(C)C)c1N1C(=O)c2ccc(N)cc2C1=O [TC11, 2-(2,6-di-isopropylphenyl)-5-amino-1H-isoindole-1,3-dione, reference compound] | 5.40 | 5.55 | 5.70 | 5.59 | 5.10 to 5.70 | no decrease in body weight | significant decreases in tumor volume | 0.002 | 1 × | never bind to CRBN | 5.15 | 5.52 | – | – | – |
